Results on 15 compounds are retold here after patent US20150344466A1 (SUMITOMO CHEMICAL COMPANY, LIMITED, priority 2013, published 2015).

Type in all cases: in vivo
Experiment [1] deals with Culex pipiens pallens. The experiment can be described thus: Knockdown spray test on adult Culex pipiens pallens (Test Example 4). The following applies: topical, 0.25 h, active ingredient 0.1% w/v, 0.5 ml sprayed, within 15 minutes, read-out: knockdown rate of the test insects within 15 minutes. The procedure, abridged: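 Ten adult mosquitoes in a gauze-covered cup inside a 46×46×70 cm chamber were sprayed with 0.5 ml of test solution from 30 cm at 0.4 kg/cm^2. The cup was removed at once, and knocked-down insects were counted at 2, 5 and 15 min; knockdown rate (%) = knocked-down/tested ×100.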

Experiment [2] relates to Musca domestica. The experiment in a line: Knockdown spray test on adult Musca domestica (Test Example 3). Conditions: topical, 0.25 h, active ingredient 2.0% w/v, 0.5 ml sprayed, within 15 minutes, read-out: knockdown rate of the test insects within 15 minutes. The procedure, abridged: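 Ten adult house flies (5 male, 5 female) in a gauze-covered cup sprayed with 0.5 ml test solution from 30 cm at 0.9 kg/cm^2 inside a chamber, then removed. Knocked-down flies counted at 2, 5 and 15 min and expressed as % of insects tested.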

Experiment [3] deals with Aphis gossypii. The experiment can be described thus: Soil treatment test on Aphis gossypii on cucumber (Test Example 9). Conditions: 168 h, 5 ml treatment solution in contact with soil, seven days after putting insects, read-out: controlling value. As for the experimental part:
On the other hand, cucumber was planted in a polyethylene cup with a plurality of small holes on the bottom and grown until the first true leaf was spread. A cup in which cucumber was planted was put in a plastic cup with 5 ml of the test treatment solution, so that the soil in the cup was in contact with the treatment liquid. After five days, about 20Aphis gossypii were allowed to parasitize the cucumber, and seven days after putting insects, the number of Aphis gossypii was investigated, and the controlling value was calculated according to the following equation. Controlling value (%)={1−(Cb×Tai)/([…])}×100 In the equation, the symbols represent as follows. Cb: the number of insects in a non-treated section before treatment Cai: the number of insects in a non-treated section on observation Tb: the number of insects in a treated section before treatment Tai: the number of insects in a treated section on observation

In experiment [4] the test system is Blattella germanica. The experiment can be described thus: Knockdown spray test on Blattella germanica, 2.0% w/v oil formulation (Test Example 1). Conditions: topical, 0.25 h, active ingredient 2.0% w/v, 1.5 ml sprayed, within 15 minutes, read-out: knockdown rate of the test insects within 15 minutes. The gist of the method:
(§1)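 Ten German cockroaches (5 males, 5 females) in a mesh-bottomed, butter-walled container were sprayed with 1.5 ml test solution from 60 cm at 0.42 kg/cm^2 inside a chamber.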

In experiment [5] the test system is Musca domestica. The experiment in a line: Filter paper/sucrose bait death rate test on Musca domestica (Test Example 5). The following applies: female imagoes of Musca domestica, 0.7 ml on filter paper, after 24 hours. The procedure, abridged: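 Filter paper in a 5.5 cm cup dosed with 0.7 ml test drug solution, with 30 mg sucrose as bait. Ten female adult houseflies released and cup sealed. Dead insects counted after 24 h; death rate (%) = dead/tested × 100.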

In experiment [6] the test system is Plutella xylostella. The experiment in a line: Foliar spray test on Plutella xylostella on cabbage (Test Example 10). The following applies: 120 h, third instar larvae of Plutella xylostella on cabbage, 500 ppm spray 20 ml/cup, after five days, read-out: controlling value. The gist of the method: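 Cabbage at the third–fourth true-leaf stage sprayed with test solution at 20 ml/cup, dried, then infested with 10 third-instar larvae. Insects counted after five days; controlling value (%) calculated from treated and non-treated counts before treatment and at observation.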

Experiment [7] has as its system Spodoptera litura. The experiment can be described thus: Foliar spray test on Spodoptera litura on cabbage (Test Example 11). Conditions: 96 h, fourth instar larvae of Spodoptera litura on cabbage, 500 ppm spray 20 ml/cup, after 4 days, read-out: controlling value. The gist of the method:
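Cabbage is grown in cups to the third–fourth true leaf and sprayed at 20 ml/cup. Once the spray has dried, 10 fourth-instar larvae are released per cup and survivors are counted after 4 days. Controlling value (%) is corrected using pre-treatment and observation counts in treated and untreated sections.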

Experiment [8] concerns Aphis gossypii. The experiment in a line: Foliar spray test on Aphis gossypii on cucumber (Test Example 8). Conditions: 144 h, 500 ppm spray 20 ml/cup, Sir days after spraying, read-out: controlling value. As for the experimental part:
On the other hand, cucumber was planted in a polyethylene cup and grown until the first true leaf was spread, and about 20 Aphis gossypii were allowed to parasitize the cucumber. One day after, the test spray solution was sprayed to the cucumber at a ratio of 20 ml/cup. Sir days after spraying, the number of Aphis gossypii was investigated, and the controlling value was calculated according to the following equation. Controlling value (%)={1−(Cb×Tai)/(Cai×Tb)}×100 In the equation, the symbols represent as follows. Cb: the number of insects in a non-treated section before treatment Cai: the number of insects in a non-treated section on observation Tb: the number of insects in a treated section before treatment Tai: the number of insects in a treated section on observation

For experiment [9], the system named is Blattella germanica. The experiment in a line: Knockdown spray test on Blattella germanica, 0.1% w/v oil formulation (Test Example 2). Conditions: topical, 0.25 h, active ingredient 0.1% w/v, 1.5 ml sprayed, within 15 minutes, read-out: knockdown rate of the test insects within 15 minutes. The procedure, abridged: as §1
Experiment [10] deals with Culex pipiens pallens. The experiment in a line: Larvicidal test on Culex pipiens pallens, eight days (Test Example 7). Conditions: 192 h; last-instar larvae of Culex pipiens pallens; 3.5 ppm in water; eight days later; read-out: death rate. The procedure, abridged:
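Twenty last-instar larvae placed in 100 ml ion-exchanged water containing test drug at 3.5 ppm active ingredient. Mortality scored after eight days; death rate = dead/tested × 100.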

The subject of experiment [11] is Culex pipiens pallens. The experiment can be described thus: Larvicidal test on Culex pipiens pallens, one day (Test Example 6). Conditions: 24 h; last-instar larvae of Culex pipiens pallens; 3.5 ppm in water; one day later; read-out: death rate. The protocol: Each of the formulations of Compounds of Present Invention (39), (63), (71), (72), (92), (93), (95), (106), (150), (171), (170), (181), (182), (183), (187), (188), (189), (190), (191), (192), (200), (201), (201), (234), (246), (290) and (299) obtained in Formulation Example 15 was diluted with water, so as to have a concentration of the active ingredient of 500 ppm, to prepare a test drug solution.
20 last-instar larvae of Culex pipiens pallens were released into a liquid to which 0.7 ml of the above test drug solution was added to 100 ml of ion-exchanged water (a concentration of the active ingredient of 3.5 ppm). One day later, the life and death of the Culex pipiens pallens was examined, and the death rate was calculated. The death rate was calculated by the following equation.
Death rate (%)=(Number of dead insects/Number of tested insects)×100

With `O=C(NCCC1CCOC1)c1cc(COCc2ccccc2)on1` (stereo not drawn) [(30), N-[2-(tetrahydrofuran-3-yl)ethyl]-5-benzyloxymethylisoxazole-3-carboxamide], the pest or weed control at 0.1 % strength in experiment [1] is ≥ 80%. Moreover, the pest or weed control at 2 % strength in experiment [2] and in [4] was ≥ 80% throughout. The pest or weed control at 500 ppm in experiment [3] was ≥ 90%.
Regarding `O=C(NCC1COCCO1)c1cc(COCc2ccccc2)on1` (stereo not drawn) [(31)], in [1], the pest or weed control at 0.1 % strength was ≥ 80%. Besides, in experiment [3], the pest or weed control at 500 ppm is ≥ 90%. Besides, the pest or weed control at 2 % strength in experiment [4] was ≥ 80%.
With `O=C(NC[C@H]1CCOC1)c1cc(COCc2ccccc2)on1` [(33), N—[(R)-tetrahydrofuran-3-ylmethyl]-5-benzyloxymethylisoxazole-3-carboxamide], in [1], the pest or weed control at 0.1 % strength was ≥ 80%. Moreover, the pest or weed control at 2 % strength in experiment [2] and in [4] was ≥ 80% in each case. The pest or weed control at 500 ppm in experiment [3] was ≥ 90%.
Take `O=C(NC[C@@H]1CCOC1)c1cc(COCc2ccccc2)on1` [(34), N—[(S)-tetrahydrofuran-3-ylmethyl]-5-benzyloxymethylisoxazole-3-carboxamide]: the pest or weed control at 500 ppm in [5] and in experiment [3] was ≥ 90% throughout. The pest or weed control at 0.1 % strength in [1] was ≥ 80%. In addition, the pest or weed control at 2 % strength in experiment [2] and in experiment [4] was ≥ 80% in each case.
Regarding `CC1(CNC(=O)c2cc(COCc3ccccc3)on2)CCOC1` (stereo not drawn) [(36), N-(3-methyltetrahydrofuran-3-ylmethyl)-5-benzyloxymethylisoxazole-3-carboxamide], the pest or weed control at 0.1 % strength in [1] was ≥ 80%. Moreover, the pest or weed control at 2 % strength in experiment [2] and in experiment [4] was ≥ 80% each time. The pest or weed control at 500 ppm in experiment [3] was ≥ 90%.
`O=C(NC1CCOCC1)c1cc(COCc2ccccc2)on1` [(43), N-(tetrahydropyran-4-yl)-5-benzyloxymethylisoxazole-3-carboxamide]: the pest or weed control at 0.1 % strength in [1] is ≥ 80%. Moreover, the pest or weed control at 500 ppm in experiment [3] was ≥ 90%. The pest or weed control at 2 % strength in experiment [4] was ≥ 80%.
Take `O=C(NCC1CCOCC1)c1cc(COCc2cccc(SC(F)(F)F)c2)on1` [(81), N-(tetrahydropyran-4-ylmethyl)-5-(3-trifluoromethylthiobenzyloxymethyl)isoxazole-3-carboxamide]: the values for the pest or weed control at 500 ppm in [6], in experiment [7] and in experiment [8] were ≥ 90%, ≥ 80% and ≥ 90%, respectively. Moreover, the pest or weed control at 0.1 % strength in experiment [1] was ≥ 80%.
With `O=C(NCC1CCOCC1)c1cc(COCc2ccc(OC(F)(F)F)cc2)on1` [(94), N-(tetrahydropyran-4-ylmethyl)-5-(4-trifluoromethoxybenzyloxymethyl)isoxazole-3-carboxamide], the pest or weed control at 500 ppm in [6] and in [8] was ≥ 90% throughout. Besides, the pest or weed control at 0.1 % strength in [1] and in [9] was ≥ 80% each time.
For `O=C(NCC1CCOC1)c1cc(COCc2ccc3c(c2)OCO3)on1` (stereo not drawn) [(105), N-(tetrahydrofuran-3-ylmethyl)-5-(3,4-methylenedioxybenzyloxymethyl)isoxazole-3-carboxamide], the pest or weed control at 500 ppm was ≥ 90% in [5], ≥ 90% in experiment [6], ≥ 80% in experiment [7] and ≥ 90% in [3]. Further, the pest or weed control at 0.1 % strength in experiment [1] and in experiment [9] was ≥ 80% each time. Also, the pest or weed control at 3.5 ppm in experiment [10] was ≥ 90%.
In the case of `O=C(NCC1CCOCC1)c1cc(COCc2ccc3c(c2)OCO3)on1` [(106), N-(tetrahydropyran-4-ylmethyl)-5-(3,4-methylenedioxybenzyloxymethyl)isoxazole-3-carboxamide], the pest or weed control at 3.5 ppm in experiment [11] and in experiment [10] was ≥ 90% throughout. Besides, the results for the pest or weed control at 500 ppm in experiment [6], in experiment [7] and in experiment [3] were ≥ 90%, ≥ 80% and ≥ 90%, respectively. The pest or weed control at 0.1 % strength in experiment [1] and in experiment [9] was ≥ 80% throughout.
Take `O=C(NCC1CCOC1)c1cc(COCc2ccc3c(c2)CCCC3)on1` (stereo not drawn) [(119), N-(tetrahydrofuran-3-ylmethyl)-5-(5,6,7,8-tetrahydronaphthalen-2-ylmethoxymethyl)isoxazole-3-carboxamide]: the pest or weed control at 500 ppm in experiment [6] and in [8] was ≥ 90% each time. The pest or weed control at 0.1 % strength in experiment [1] was ≥ 80%. The pest or weed control at 3.5 ppm in experiment [10] is ≥ 90%. Further, the pest or weed control at 2 % strength in experiment [2] and in [4] was ≥ 80% throughout.
With `CC(OCc1ccccc1)c1cc(C(=O)NCC2CCOC2)no1` (stereo not drawn) [(129), N-(tetrahydrofuran-3-ylmethyl)-5-[1-(benzyloxy)ethyl]isoxazole-3-carboxamide], the pest or weed control at 500 ppm in experiment [8] and in [3] was ≥ 90% throughout.
As to `O=C(NCC1CCOC1)c1cc(COCC2CCCC2)on1` (stereo not drawn) [(131), N-(tetrahydrofuran-3-ylmethyl)-5-cyclopentylmethoxymethylisoxazole-3-carboxamide], the pest or weed control at 0.1 % strength in experiment [1] is ≥ 80%. The pest or weed control at 2 % strength in experiment [2] and in experiment [4] was ≥ 80% in each case. The pest or weed control at 500 ppm in experiment [8] was ≥ 90%.
As for `O=C(NCC1CCOC1)c1cc(CCCCCCO)on1` (stereo not drawn) [(144), N-(tetrahydrofuran-3-ylmethyl)-5-(6-hydroxyhexyl)isoxazole-3-carboxamide], the pest or weed control at 500 ppm in [8] is ≥ 90%.
As to `O=C(NCC1CCOC1)c1cc(C(F)c2ccccc2)on1` (stereo not drawn) [(154), N-(tetrahydrofuran-3-ylmethyl)-5-(1-fluoro-1-phenylmethyl)isoxazole-3-carboxamide], the pest or weed control at 500 ppm in [8] and in experiment [3] was ≥ 90% throughout.
